According to publication PMC4263135, “A general strategy for developing cell-permeable photo-modulatable organic fluorescent probes for live-cell super-resolution imaging” (Nature Communications, 2014):
Where a SMILES comes first, the peptide text is derived from it. Side-chain parts run from the residue outwards. [ ]: non-standard residue; d: D form. The star is where a group is joined. FITC = O=C1OC2(c3ccc(O)cc3Oc3cc(O)ccc32)c2ccc(NC(=S)*)cc21; Ahx = NCCCCCC(=O)O

Legend:
F-actin = details: cited from earlier work
Excerpt: The non-fluorescent PA-RhB fluorophore has been reported to be switched on by ultraviolet light, to be thermally reverted to a dark state, and to be excited by 560-nm laser light, emitting optimally at 600 nm in fixed cells. However, it is unknown whether the live-cell environment changes the properties of PA-RhB and whether the PA-RhB fluorophore can be used for live-cell super-resolution imaging.

live BSC-1 cells = experiment: Intracellular distribution of probes by confocal microscopy (Trypan blue quench); assay type: cell-based, African green monkey (Cercopithecus aethiops); details: 37 °C
Procedure: For F-actin imaging, BSC-1 cells were seeded into cell culture dishes at a density of 1.5 × 10^4 per well in growth medium (MEM supplemented with 10% FBS, 200 μl). After an overnight incubation, the cells were washed with phosphate-buffered saline (PBS, pH 7.4) for three times. A solution of the indicated probe (15 μM, 200 μl) in PBS was then added, and the cells were incubated in a 5% CO2 atmosphere at 37 °C for the indicated (5, 10, 15 and 30 min) times as mentioned in the main text. The supernatant was then discarded, and a solution of Trypan blue (200 μl, 1 mg ml^−1) in PBS was added to quench the extracellular fluorescence of the probes that were bound to either the cell membrane or the dish surface. After 2 min, Trypan blue was removed, the cells were washed gently twice with PBS and immersed in growth medium prior to optical imaging.
The fluorescence signals were detected using a Fluoview FV1000 confocal laser scanning microscope (Olympus) equipped with a × 60/1.42 numerical aperture oil-immersion objective lens (FITC channel: excitation (EX) 488 nm, emission (EM) 510–530 nm; GFP channel: EX 488 nm, EM 508–532 nm; tdEosFP channel: EX 488 nm, EM 500–522 nm; RhB channel: EX 543 nm, EM 580–630 nm; FAM channel: EX 488 nm, EM 505–540 nm and LysoTracker Red channel: excitation (EX) 543 nm, emission (EM) 560–580 nm). All fluorescence images were analyzed with Image J software.

Compound	affinity for F-actin in live cells (F-actin)	intracellular distribution (live BSC-1 cells; 15 μM in PBS, 5 to 30 min, confocal fluorescence)	time to enter the live cells efficiently (live BSC-1 cells; cell uptake, probe 15 μM in PBS, Trypan blue quench of extracellular fluorescence)
MGVADLIKKFESISKEE [Lifeact]	low affinity		
CC[C@H](C)[C@H](NC(=O)[C@H](CC(C)C)NC(=O)[C@H](CC(=O)O)NC(=O)[C@H](C)NC(=O)[C@@H](NC(=O)CNC(=O)[C@@H](N)CCSC)C(C)C)C(=O)N[C@@H](CCCCN)C(=O)N[C@@H](CCCCN)C(=O)N[C@@H](Cc1ccccc1)C(=O)N[C@@H](CCC(=O)O)C(=O)N[C@@H](CO)C(=O)N[C@H](C(=O)N[C@@H](CO)C(=O)N[C@@H](CCCCN)C(=O)N[C@@H](CCC(=O)O)C(=O)N[C@@H](CCC(=O)O)C(=O)NCC(=O)NCC(=O)NCC(=O)NCC(=O)N[C@@H](CCCCNC(=O)CCCCCNC(=S)Nc1ccc2c(c1)C(=O)OC21c2ccc(O)cc2Oc2cc(O)ccc21)C(=O)NCC(=O)NCC(=O)N[C@H](CCCNC(=N)N)C(=O)N[C@@H](CCCNC(=N)N)C(=O)N[C@H](CCCNC(=N)N)C(=O)N[C@@H](CCCNC(=N)N)C(=O)N[C@H](CCCNC(=N)N)C(=O)N[C@@H](CCCNC(=N)N)C(=O)N[C@@H](CCCNC(=N)N)C(=O)N[C@@H](CCCNC(=N)N)C(=O)O)[C@@H](C)CC [probe 1] (H-MGVADLIKKFESISKEEGGGGK([Ahx-FITC])GG[dR]R[dR]R[dR]RRR-OH)		diffuse localization throughout the cytoplasm	≤ 5 min
